Where only a bound is given, the exact number is not on record here.

What is called IC50 is the point on the concentration scale where inhibition reaches its midpoint. Higher therefore signals a need for much substance.

Assay [1] addresses GPIIb/IIIa (Homo sapiens, UniProt P05106+P08514). The experiment in a line: In vitro solid phase purified glycoprotein IIb/IIIa binding assay (biotinylated fibrinogen binding). To be noted: for inhibition at 50 µM: read-out: Fibrinogen Binding % Inh. (50 µM). As for the experimental part: IN VITRO SOLID PHASE PURIFIED GLYCOPROTEIN IIB/IIIA BINDING ASSAY.
The plate is covered and incubated overnight at 4°C. The GPIIb/IIa solution is discarded and 150 µl of 5% BSA is added and incubated at RT for 1-3 h. The plate is washed extensively with modified Tyrodes buffer. Biotinylated fibrinogen (25 µl/well) at 2 x final concentration is added to the wells that contain the test compounds (25 µl/well). The plate is covered and incubated at RT for 2-4 h. Twenty minutes prior to incubation completion, one drop of Reagent A (Vecta Stain ABC Horse Radish Peroxidase kit, Vector Laboratories, Inc.) and one drop Reagent B are added with mixing to 5 mL modified Tyrodes buffer mix and let stand. The ligand solution is discarded and the plate washed (5 x 200 µl/well) with modified Tyrodes buffer. Vecta Stain HRP-Biotin-Avidin reagent (50 µl/well, as prepared above) is added and incubated at RT for 15 min. The Vecta Stain solution is discarded and the wells washed (5 x 200 µl/well) with modified Tyrodes buffer. Developing buffer (10 mL of 50 mM citrate/phosphate buffer @ pH 5.3, 6 mg o-phenylenediamine, 6 µl 30% H2O2; 50 µl/well) is added and incubated at RT for 3-5 min, and then 2N H2SO4 (50 µl/well) is added. The absorbance is read at 490 nm.

Assay [2] concerns gel-filtered platelets. The experiment in a line: In vitro inhibition of thrombin-induced gel-filtered platelet aggregation. The class given is cell-based. As to conditions: Homo sapiens; for inhibition at 50 µM: read-out: Platelet Aggregation % Inh. (50µM). As for the experimental part:
IN VITRO INHIBITION OF THROMBIN-INDUCED GEL-FILTERED PLATELET AGGREGATION ASSAY.
The percentage of platelet aggregation is calculated as an increase in light transmission of compound-treated platelet concentrate vs. control-treated platelet concentrate. Human blood is obtained from drug free, normal donors into tubes containing 0.13M sodium citrate. Platelet rich plasma (PRP) is collected by centrifugation of whole blood at 200 x g for 10 min at 25°C. The PRP (5 mL) is gel filtered through Sepharose 2B (bed volume 50 mL), and the platelet count is adjusted to 2x10^7 platelets per sample. The following constituents are added to a siliconized cuvette: concentrated platelet filtrate and Tyrode's buffer (0.14M NaCl, 0.0027MKCl, 0.012M NaHCO3, 0.76 mM Na2HPO4, 0.0055M glucose, 2 mg/mL BSA and 5.0mM HEPES @ pH 7.4) in an amount equal to 350 µl, 50 µl of 20 mM calcium and 50 µl of the test compound. Aggregation is monitored in a BIODATA aggregometer for the 3 min following the addition of agonist (thrombin 50 µl of 1 unit/mL).

Chain of GPIIb/IIIa (P08514 32-887 limits assumed): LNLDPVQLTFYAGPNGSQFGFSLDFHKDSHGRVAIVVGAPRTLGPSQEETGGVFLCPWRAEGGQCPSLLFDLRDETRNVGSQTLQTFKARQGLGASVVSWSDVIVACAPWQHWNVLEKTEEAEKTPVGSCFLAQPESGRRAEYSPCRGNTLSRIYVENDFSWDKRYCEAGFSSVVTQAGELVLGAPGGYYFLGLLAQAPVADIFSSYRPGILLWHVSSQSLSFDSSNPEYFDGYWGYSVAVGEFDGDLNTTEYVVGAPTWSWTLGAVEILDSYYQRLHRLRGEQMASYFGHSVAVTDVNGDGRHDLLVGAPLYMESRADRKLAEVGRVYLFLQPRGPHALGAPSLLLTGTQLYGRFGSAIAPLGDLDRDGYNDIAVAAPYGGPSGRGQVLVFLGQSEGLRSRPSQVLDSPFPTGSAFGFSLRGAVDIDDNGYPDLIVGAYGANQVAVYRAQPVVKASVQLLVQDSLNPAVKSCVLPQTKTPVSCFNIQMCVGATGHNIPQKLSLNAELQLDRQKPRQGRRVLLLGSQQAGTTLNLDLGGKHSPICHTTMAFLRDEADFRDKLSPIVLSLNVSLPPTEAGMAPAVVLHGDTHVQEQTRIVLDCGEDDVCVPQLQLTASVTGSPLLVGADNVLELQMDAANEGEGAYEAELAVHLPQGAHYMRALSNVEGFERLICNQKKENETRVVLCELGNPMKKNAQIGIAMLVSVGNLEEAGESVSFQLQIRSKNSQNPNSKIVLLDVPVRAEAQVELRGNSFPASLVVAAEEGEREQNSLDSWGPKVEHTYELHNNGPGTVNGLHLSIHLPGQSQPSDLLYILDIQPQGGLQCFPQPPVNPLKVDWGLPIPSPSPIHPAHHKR
Chain of GPIIb/IIIa (P08514 891-1039 partner limits assumed): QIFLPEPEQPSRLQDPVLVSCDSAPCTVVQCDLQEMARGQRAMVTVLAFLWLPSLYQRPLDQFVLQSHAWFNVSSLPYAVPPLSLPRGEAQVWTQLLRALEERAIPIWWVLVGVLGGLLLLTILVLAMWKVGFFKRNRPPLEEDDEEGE
Chain of GPIIb/IIIa (P05106 27-788): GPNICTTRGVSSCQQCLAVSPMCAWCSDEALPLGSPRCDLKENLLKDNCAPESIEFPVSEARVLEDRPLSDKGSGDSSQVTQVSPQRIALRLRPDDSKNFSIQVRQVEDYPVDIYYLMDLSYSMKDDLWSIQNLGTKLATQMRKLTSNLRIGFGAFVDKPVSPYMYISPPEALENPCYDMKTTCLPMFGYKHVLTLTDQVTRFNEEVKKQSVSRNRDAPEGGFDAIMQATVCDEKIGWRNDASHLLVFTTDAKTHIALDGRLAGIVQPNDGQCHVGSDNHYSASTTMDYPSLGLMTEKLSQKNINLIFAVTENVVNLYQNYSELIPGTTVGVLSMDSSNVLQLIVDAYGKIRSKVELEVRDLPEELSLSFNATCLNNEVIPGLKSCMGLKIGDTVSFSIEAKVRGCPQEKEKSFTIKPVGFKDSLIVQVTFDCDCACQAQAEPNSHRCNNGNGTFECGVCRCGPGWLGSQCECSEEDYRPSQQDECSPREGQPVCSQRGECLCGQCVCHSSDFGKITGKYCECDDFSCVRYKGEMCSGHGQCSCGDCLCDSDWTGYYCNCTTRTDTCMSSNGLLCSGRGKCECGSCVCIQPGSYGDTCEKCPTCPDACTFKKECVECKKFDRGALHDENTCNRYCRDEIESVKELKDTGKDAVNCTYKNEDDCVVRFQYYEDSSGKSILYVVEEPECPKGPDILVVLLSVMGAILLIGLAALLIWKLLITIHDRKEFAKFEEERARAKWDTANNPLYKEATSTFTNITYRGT

Take `O=C(O)C(O)CNC(=O)[C@@H]1CCCN(C(=O)CCC2CCNCC2)C1` (single isomer, unassigned) [Compound 11, N-3-(4-Piperidinepropionyl)-R-(-)-nipecotyl-(3-amino-2-hydroxy) propionic acid]: the inhibition at 50 µM in assay [1] was determined as 79.6%; in assay [2], 99.2%. In assay [2], it took 1550 nM to reach half-maximal inhibition (IC50).
Regarding `O=C(O)CC(NC(=O)C1CCCN(C(=O)CCC2CCNCC2)C1)c1ccccc1` (stereo not drawn) [Compound 1, N-3-(4-Piperidinepropionyl)-nipecotyl-(3-amino-3-phenyl) propionic acid], the IC50 in assay [1] is 3 nM; in assay [2], 3600 nM. Also, the inhibition at 50 µM in assay [1] came to 95%; in assay [2], 83%.
For `CC(CNC(=O)C1CCCN(C(=O)NCC2CCNCC2)C1)C(=O)O` (stereo not drawn) [Compound 2, N-(4-Piperidinemethylaminocarbonyl)-nipecotyl-(3-amino-2-methyl) propionic acid] the same measures were 27 nM, 54000 nM, 93% and 95.7%.
With `COC(=O)[C@@H](CC(=O)O)NC(=O)C1CCCN(C(=O)OCC2CCNCC2)C1` (stereo partly drawn) [Compound 3, N-(4-Piperidinemethyloxycarbonyl)-nipecotyl-D-aspartic acid α-methyl ester], the inhibition at 50 µM was determined as 81% in assay [1] and 26.2% in assay [2]. The same molecule had an IC50 in assay [2] of over 100000 nM.
`Cc1ccc(C(CC(=O)O)NC(=O)C2CCN(C(=O)CCC3CCNCC3)C2)cc1` (stereo not drawn) [Compound 4, N-3-(4-Piperidinepropionyl)-pyrrolidine-3-carboxy-[3-amino-3-(4-tolyl)]propionic acid]: in assay [1], the 50% inhibitory concentration (IC50) amounted to 121 nM and the inhibition at 50 µM was 89.9%. Besides, in assay [2], inhibition was half-maximal at 26000 nM (IC50) and the inhibition at 50 µM turned out to be 81%.
For `CC(CC(=O)O)NC(=O)C1CCN(C(=O)CCC2CCNCC2)CC1` (stereo not drawn) [Compound 5, N-3-(4-Piperidinepropionyl)-isonipecotyl-(3-amino-3-methyl) propionic acid] the same measures were 12 nM, 89%, 10000 nM and 100%.
For `O=C(O)CC(NC(=O)C1CCN(C(=O)CCC2CCNCC2)CC1)c1ccc(C(=O)O)cc1` (stereo not drawn) [Compound 6] the same measures were 197 nM, 90.7%, 73000 nM and 71.2%.
Regarding `CN1CCC(CCC(=O)N2CCCC(C(=O)NCCC(=O)O)C2)CC1` (stereo not drawn) [Compound 7, N-3-(4-N-Methyl-piperidinepropionyl)-nipecotyl-3-aminopropionic acid], in assay [1], the IC50 is 6 nM and the inhibition at 50 µM was determined as 100%. In addition, in assay [2], it took 2400 nM to reach half-maximal inhibition (IC50) and the inhibition at 50 µM worked out at 75.6%.
In the case of `O=C(O)C1CN(C(=O)C2CCCN(C(=O)CCC3CCNCC3)C2)CCC1=O` (stereo not drawn) [Compound 8, N-3-(4-Piperidinepropionyl)-nipecotyl-4-oxonipecotic acid], in assay [1], the IC50 came to 332 nM and the inhibition at 50 µM worked out at 93%.
Turning to `C[Si](C)(C)C#CC(CC(=O)O)NC(=O)C1CCCN(C(=O)CCC2CCNCC2)C1` (stereo not drawn) [Compound 9, N-3-(4-Piperidinepropionyl)-nipecotyl-[3-amino-3-(2-trimethylsilylethynyl)]propionic acid], the IC50 stood at 2 nM in assay [1] and 370 nM in assay [2]. The results for the inhibition at 50 µM in assay [1] and in assay [2] were 99% and 90.9%, respectively.
Regarding `NCCCCCC(=O)N1CCCC(C(=O)NC(CC(=O)O)c2cccnc2)C1` (stereo not drawn) [Compound 10, N-(6-Aminocaproyl)-nipecotyl-3-amino-3-(3-pyridyl)propionic acid], the inhibition at 50 µM in assay [1] was 91.3%. In assay [2], inhibition was half-maximal at 1600 nM (IC50) and the inhibition at 50 µM turned out to be 85%.
On to `O=C(O)CCNC(=O)C1CCCN(S(=O)(=O)CCC2CCNCC2)C1` (stereo not drawn) [Compound 12, N-3-(4-Piperidineethanesulfonyl)-nipecotyl-3-aminopropionic acid], for which, in assay [1], the IC50 came to 25 nM and the inhibition at 50 µM was determined as 97%. Further, in assay [2], 15500 nM corresponded to half-maximal inhibition (IC50) and the inhibition at 50 µM turned out to be 88%.
On the same counts, the results for `O=C(NCCc1nnn[nH]1)C1CCCN(C(=O)CCC2CCNCC2)C1` (stereo not drawn) [Compound 13, N-3-(4-Piperidinepropionyl)-nipecotyl-5H-(2-aminoethyl)tetrazole] are 1390 nM, 95%, 25500 nM and 67%.
For `CN1CCN(CCC(=O)N2CCCC(C(=O)NC(CC(=O)O)c3ccc4c(c3)OCO4)C2)CC1` (stereo not drawn) [Compound 14, N-3-(4-N-Methyl-piperazinepropionyl)-nipecotyl-[3-amino-3-(3,4-methylenedioxyphenyl)]propionic acid] the same measures were 4 nM, 99%, 910 nM and 91%.
`O=C(O)CC(NC(=O)C1CCCCN(C(=O)CCC2CCNCC2)C1)c1cnc2ccccc2c1` (stereo not drawn) [Compound 17, N-3-(4-Piperidinepropionyl)-hexahydroazepine-3-carboxy-[3-amino-3-(3-quinolinyl)]propionic acid]: in assay [1], the IC50 amounted to 5 nM and the inhibition at 50 µM was 96%. In addition, in assay [2], the IC50 was 450 nM and the inhibition at 50 µM amounted to 89.6%.
Take `O=C(O)C[C@H](NC(=O)C1CCCN(CCCC2CCNCC2)C1)c1ccc2c(c1)OCO2` (stereo partly drawn) [Compound 20, N-3-(4-Piperidinepropyl)-nipecotyl-[(S)-3-amino-3-(3,4-methylenedioxyphenyl)]propionic acid]: the inhibition at 50 µM in assay [1] is 99%. In assay [2], the IC50 was 37000 nM and the inhibition at 50 µM amounted to 89.7%.
On the same counts, the results for `O=C(NC[C@@H]1NC(=O)N(Cc2ccccc2)C1=O)[C@@H]1CCCN(C(=O)CCC2CCNCC2)C1` [Compound 29, N-3-(4-Piperidinepropionyl)-R-(-)nipecotyl-aminomethyl-5-(S)-(3-N-benzyl)imidazoline-2.4-dione] are 100%, 42000 nM and 100%.
For `O=C(O)C[C@H](NC(=O)[C@@H]1CCCN(C(=O)CCC2CCNCC2)C1)c1cncc(Br)c1` [Compound 32, N-3-(4-Piperidinepropionyl)-R-(-)nipecotyl-[(S)-3-amino-3-(5-bromo-3-pyridyl)] propionic acid], the inhibition at 50 µM in assay [1] amounted to 100%. Moreover, the IC50 in assay [2] came out at 20 nM.
Take `N=CN1CCC(CCC(=O)N2CCCC(C(=O)NC(CC(=O)O)c3cccnc3)C2)CC1` [Compound 33, N-3-(4-Formamidinopiperidinepropionyl)-R-(-)nipecotyl-[(S)-3-amino-3-(3-pyridyl)] propionic acid]: the inhibition at 50 µM in assay [1] and in assay [2] was 100% throughout. The same molecule returned an IC50 in assay [2] of 300 nM.
